In PMC9959676 (Molecules, 2023):
Read-outs that look alike come from different tables or passages of the source.

Legend:
[1] = DPPH free radical scavenging assay; conditions: 1.0 mL sample 0.5 mg/mL + 2 mL DPPH 0.2 mg/mL, 30 min, 517 nm
Description: The DPPH assay was carried out to estimate the antioxidant potential among all the compounds [29]. Then, 2 mL (0.2 mg/mL in methyl alcohol) of DPPH was mixed with 1.0 mL (0.5 mg/mL in methyl alcohol) of the sample solution in a test tube. All the reaction tubes were covered with aluminum foil and kept aside for 30 min to complete the reaction. The activity was carried out in a dark room. […] A UV-visible spectrophotometer was employed to observe a reduction in the concentration of free radicals at 517 nm. The absorbance of the control (1.0 mL methanol + 2 mL DPPH solution) was also measured. All samples were evaluated in a triplicate manner, and the mean results were recorded. The standard antioxidant (ascorbic acid) was evaluated and set as a reference/standard. The percentage of inhibition (%) was calculated using the following formula in terms of scavenging activity(S):S (%) = [(Ab − Aa)/Ab] × 100(1) where Ab = Absorbance of control; and Aa = Absorbance of the test sample

thoracic aorta segments = assay: Inhibition of phenylephrine-induced contraction on isolated aorta rings; set-up: species or system male Wistar rats; conditions: compounds 10^−4 M in organ bath, phenylephrine 10^−6 M, n = 5; for inhibition at 100 µM: Rattus norvegicus, read-out: %ge inh. of Phenylephrine Cont. (±SEM)
Description: (§1) Cervical disruption was used to eliminate male Wistar rats weighing 200 g and 300 g. The thoracic aorta segments (3 mm to 5 mm) were slightly pressed and […]. The tissues were placed in an organ bath filled with 10 mL of Krebs-Henseleit solution and kept at 37 °C. Then 95% oxygen and 5% carbon dioxide were passed through the above-mentioned solution. To record organ responses to phenylephrine, (10^−6 M) (Sigma, St. Louis, MO, USA) simulated contractions; isometric transducers and Gemini recorders (Ugo Basile, Varese, Italy) were assembled. Aortic rings were recon traced with phenylephrine (10^−6 M) and subjected to acetylcholine (10^−6 M) for recording endothelium-dependent relaxations (EDR). All synthesized compounds along with the standard (valsartan) were mixed in DMSO; whereas synthesized derivatives of concentration 10^−4 M were added in an organ bath. In conscious rats, systolic blood pressure was recorded by applying the tail-cuff method. Wistar rats of 200 g to 250 g weight were selected and divided into groups of five individuals. The chemicals were injected intraperitoneally at a dosage of 80 mg/kg body weight. The tail-cuff and a piezoelectric pulse sensor were coupled to a blood pressure analyzer and were positioned at the base of the tail (May 9610, Ankara, Turkey).
(§2) All results were presented as the mean of SEM. (n = 5) and test compounds were employed for statistical significance determination.

conscious rats = assay: Antihypertensive effect, systolic blood pressure by tail-cuff method in conscious rats; format: in vivo, Wistar rats; conditions: 80 mg/kg intraperitoneally, n = 5, Control 108.28 ± 6.87, DMSO 81.10 ± 3.21
Description: as §1, §2

urease = urease (Canavalia ensiformis, UniProt P07374); assay: biochemical; format: biochemical; conditions: for folds more urease inhibition than standard Thiourea: relative to Thiourea IC50
urease, sequence (P07374 whole entry, looked up): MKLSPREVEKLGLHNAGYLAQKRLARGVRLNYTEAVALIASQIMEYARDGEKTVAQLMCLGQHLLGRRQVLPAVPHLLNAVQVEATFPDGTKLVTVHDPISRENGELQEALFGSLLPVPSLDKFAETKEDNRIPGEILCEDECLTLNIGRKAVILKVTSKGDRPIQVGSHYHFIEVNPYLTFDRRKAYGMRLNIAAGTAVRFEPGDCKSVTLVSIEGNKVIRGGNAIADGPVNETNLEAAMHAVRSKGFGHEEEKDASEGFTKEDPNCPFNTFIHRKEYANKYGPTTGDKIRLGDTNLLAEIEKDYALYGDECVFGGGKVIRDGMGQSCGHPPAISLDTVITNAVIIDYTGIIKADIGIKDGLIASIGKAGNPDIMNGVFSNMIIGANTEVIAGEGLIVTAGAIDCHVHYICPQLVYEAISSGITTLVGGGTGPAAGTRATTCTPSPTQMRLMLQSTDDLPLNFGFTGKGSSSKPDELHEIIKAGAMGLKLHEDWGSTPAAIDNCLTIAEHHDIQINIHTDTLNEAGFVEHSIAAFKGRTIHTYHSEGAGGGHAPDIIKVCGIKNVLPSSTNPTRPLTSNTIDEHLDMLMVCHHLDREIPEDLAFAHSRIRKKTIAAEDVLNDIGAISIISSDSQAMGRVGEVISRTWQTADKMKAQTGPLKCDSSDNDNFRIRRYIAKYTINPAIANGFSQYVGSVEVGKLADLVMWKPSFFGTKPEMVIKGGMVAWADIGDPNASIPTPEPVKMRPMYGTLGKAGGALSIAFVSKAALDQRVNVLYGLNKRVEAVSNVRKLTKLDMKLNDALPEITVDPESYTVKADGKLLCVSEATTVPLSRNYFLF
Description: The activity performed was an improved procedure of the Berthelot assay. […] For 5 min, the mixture was incubated at 37 °C. Each well in a 96-well plate received 40 µL of urea stock solution (20 mM); incubated for 10 min at 37 °C. Afterwards, 115 µL phenol hypochlorite (45 µL phenol + 70 µL alkali) per well was added. Furthermore, all the contents were incubated for 10 min at 37 °C. Absorbance at 625 nm was measured. Using the provided formula, the % of enzyme-inhibition and IC-50 values were computed Inhibition (%age) = [Control − test/100(control)] where Control = [Total enzyme activity minus inhibitor]. The test is the test compounds’ activity

Bacillus pumilus = assay: Antibacterial agar-well diffusion; format: cell-based; conditions: sample 100 mg/5 mL in DMSO; ceftriaxone sodium 20 mg/10 mL; 37 °C, 24 h; 6 mm wells
Description: (§3) After sterilizing the Mueller Hinton agar medium on plates in an autoclave and allowing it to cool to roughly 45 °C, a 100 µL standard inoculum was aseptically mixed, chilled till 37 °C, and 6 mm wells were formed in the inoculated plates. The volume of 100 μL (100 mg/5 mL in DMSO), ceftriaxone sodium (20 mg/10 mL in DMSO) as a positive control, and pure DMSO as a negative control; 30 μL of the sample solution was incorporated into these wells. These primed plates were incubated at 37 °C for 24 h prior to record inhibitory zones in millimeters.

Escherichia coli = assay: Antibacterial agar-well diffusion; format: cell-based; conditions: sample 100 mg/5 mL in DMSO; ceftriaxone sodium 20 mg/10 mL; 37 °C, 24 h; 6 mm wells
Description: as §3

Pseudomonas aeruginosa = assay: Antibacterial agar-well diffusion; format: cell-based; conditions: sample 100 mg/5 mL in DMSO; ceftriaxone sodium 20 mg/10 mL; 37 °C, 24 h; 6 mm wells
Description: as §3

Staphylococcus aureus = assay: Antibacterial agar-well diffusion; format: cell-based; conditions: sample 100 mg/5 mL in DMSO; ceftriaxone sodium 20 mg/10 mL; 37 °C, 24 h; 6 mm wells
Description: as §3

[2] = urease, pH 7.0, 37 °C, read-out: IC50 ± SEM

| SMILES | %Age Inhibition ± SEM [1] [%] | inhibition at 100 µM (thoracic aorta segments) [%] | Mean of Systolic Blood Pressure ± SEM (conscious rats) | IC50 (urease) [nM] | Zone of Inhibition Gram +ve Bacteria B.pumilus Mean ± SEM (Bacillus pumilus) [millimeters] | Zone of Inhibition Gram -Ve Bacteria E. coli Mean ± SEM (Escherichia coli) [millimeters] | Zone of Inhibition Gram -Ve Bacteria P. aeruginosa Mean ± SEM (Pseudomonas aeruginosa) [millimeters] | Zone of Inhibition Gram +ve Bacteria S. aureus Mean ± SEM (Staphylococcus aureus) [millimeters] | %ge inh. of Phenylephrine Cont. (±SEM) (thoracic aorta segments) [%] | IC50 (urease; [2]) [nM] | folds more urease inhibition than standard Thiourea (urease) [folds] |
| --- | --- | --- | --- | --- | --- | --- | --- | --- | --- | --- | --- |
| CCCCC(=O)N(Cc1ccc(-c2ccccc2-c2nn[nH]n2)cc1)C(C(=O)O)C(C)C (stereo not shown) [AV0, 2-(N-((2′-(2H-tetrazole-5-yl)-[1,1′-biphenyl]-4yl)-methyl)-pentanamido)-3-methyl butanoic acid, reference compound] | 64.6± 0.50 | 65.3 ± 3.6 | 82.41 ± 4.32 | 3210 ± 950 | 11.36 ± 0.49 | 10.40 ± 0.69 | 12.43 ± 0.67 | 12.13 ± 0.72 | – | – | – |
| CCCCC(=O)N(Cc1ccc(-c2ccccc2-c2nn[nH]n2)cc1)C(C(=O)OC(C(=O)c1ccccc1)c1ccccc1)C(C)C (stereo not shown) [AV1, 2-oxo-1,2-diphenylethyl 2-(N-((2′-(2H-tetrazol-5yl)-[1,1′-biphenyl]-4-yl)methyl)pentanamido)-3methyl butanoate] | 73.9 ± 0.49 | – | 81.78 ± 3.87 | – | 10.33 ± 0.40 | 11.06 ± 0.55 | 10.36 ± 0.28 | 10.83 ± 0.31 | 67.3 ± 4.7 | 2560 ± 320 | – |
| CCCCC(=O)N(Cc1ccc(-c2ccccc2-c2nn[nH]n2)cc1)C(C(=O)Oc1ccc(C=O)cc1OC)C(C)C (stereo not shown) [AV2, 4-formyl-2-methoxyphenyl 2(N-((2′-(2H-tetrazole-5-yl)-[1,1′-biphenyl]-4yl)methyl)pentanamido)-3-methyl butanoate] | 96.0 ± 0.49 | – | – | – | 12.26 ± 0.69 | 11.90 ± 0.26 | 09.33 ± 0.58 | 12.90 ± 0.81 | 76.4 ± 6.8 | 280 ± 150 | 4 |
| CCCCC(=O)N(Cc1ccc(-c2ccccc2-c2nnn[nH]2)cc1)C(C(=O)Oc1ccc(N)cc1)C(C)C (stereo not shown) [AV4, 4-aminophenyl 2-(N-((2′-(2H-tetrazol-5yl) -[1,1′-biphenyl]-4yl)methyl)pentanamido)-3methyl butanoate] | – | 69.4 ± 5.4 | 79.56 ± 2.78 | 3190 ± 950 | 10.46 ± 0.67 | 10.63 ± 0.40 | 10.31 ± 0.47 | 10.16 ± 0.17 | – | – | – |
| CCCCC(=O)N(Cc1ccc(-c2ccccc2-c2nn[nH]n2)cc1)C(C(=O)Oc1ccc(Cl)cc1Cl)C(C)C (stereo not shown) [AV5, 2,4-dichlorophenyl 2-(N-((2′-(2H-tetrazol-5yl)-[1,1′-biphenyl]-4 yl)methyl)pentanamido)-3methyl butanoate] | 73.1 ± 0.49 | – | 81.92 ± 5.21 | – | 11.23 ± 0.61 | 11.36 ± 0.63 | 09.36 ± 0.85 | 13.50 ± 0.50 | 66.2 ± 4.2 | 1290 ± 120 | 3 |
| CCCCC(=O)N(Cc1ccc(-c2ccccc2-c2nn[nH]n2)cc1)C(C(=O)Oc1ccc(C=O)cc1)C(C)C (stereo not shown) [AV6, 4-formylphenyl2-(N-((2′-(2H-tetrazol-5-yl)-[1, 1′-biphenyl]-4yl)methyl)pentanamido)-3methyl butanoate] | 76.3 ± 0.46 | – | 81.21 ± 3.21 | – | 11.76 ± 1.06 | 09.73 ± 0.44 | 10.73 ± 0.28 | 12.86 ± 0.72 | 67.4 ± 5.1 | 2130 ± 970 | – |
| CCCCC(=O)N(Cc1ccc(-c2ccccc2-c2nn[nH]n2)cc1)C(C(=O)Oc1ccc(CC(N)C(=O)O)cc1)C(C)C (stereo not shown) [AV7, 3-(4-((2-(N-((2′-(2H-tetrazol-5yl)-[1,1′-biphenyl]-4 yl)methyl)pentanamido)-3methylbutanoyl)oxy)phenyl)-2amino-propanoic acid] | – | 62.4 ± 2.7 | 85.61 ± 3.32 | 8590 ± 1120 | 11.13 ± 0.80 | 10.96 ± 0.18 | 10.76 ± 0.53 | 12.10 ± 0.37 | – | – | – |
| CCCCC(=O)N(Cc1ccc(-c2ccccc2-c2nn[nH]n2)cc1)C(C(=O)Oc1cc(C)ccc1C(C)C)C(C)C (stereo not shown) [AV8, 2-isopropyl-5-methylphenyl 2-(N-((2′-(2H-tetrazol-5yl)-[1, 1′-biphenyl]-4 yl)methyl)pentanamido)-3methyl butanoate] | 95.3 ± 0.55 | – | 71.56 ± 4.32 | – | 12.6 ± 0.60 | 11.21 ± 0.41 | 12.23 ± 0.27 | 12.66 ± 1.06 | 71.6 ± 6.5 | – | 3 |
| CCCCC(=O)N(Cc1ccc(-c2ccccc2-c2nn[nH]n2)cc1)C(C(=O)Oc1cccc2ccccc12)C(C)C (stereo not shown) [AV9, naphthalen-1-yl 2-(N-((2′-(2H-tetrazol-5-yl)-[1,1′-biphenyl]-4 yl)methyl)pentanamido)-3methyl butanoate] | 83.8 ± 0.64 | – | – | – | 12.76 ± 0.84 | 09.73 ± 0.23 | 10.90 ± 0.40 | 14.40 ± 0.37 | 68.3 ± 4.7 | 2260 ± 1040 | – |
| O=C1O[C@H]([C@@H](O)CO)C(O)=C1O [Ascorbic acid, reference compound] | 96.4 ± 0.52 | – | – | – | – | – | – | – | – | – | – |
| CO/N=C(\C(=O)N[C@@H]1C(=O)N2C(C(=O)O)=C(CSc3nc(=O)c(=O)[nH]n3C)CS[C@H]12)c1csc(N)n1 [Ceftriaxone, ceftriaxone sodium, reference compound] | – | – | – | – | 22.13 ± 0.14 | 21.90 ± 0.18 | 23.33 ± 0.43 | 24.60 ± 0.51 | – | – | – |
| NC(N)=S [Standard Thiourea, Thiourea, reference compound] | – | – | – | – | – | – | – | – | – | 4240 ± 130 | – |
